Activity calls are given as the source filed them. The calls are words filed in the database; no cut-off is given here. Starred links: 1 amine or outer side, 2 acyl side, 3 side chain; linkers in the order of their positions; H or OH if unused. Positions of bridges follow the written chain, without caps; N, C: chain ends. Non-standard residues stand in square brackets, D forms with d. Residues, ends and D or L forms follow the SMILES beside them. Chains are numbered I, II in the order given. Actinocin(9to1) = Cc1c2oc3c(C)ccc(C(=O)[*:1])c3nc-2c(C(=O)[*:2])c(N)c1=O; NMeV = CN[C@H](C(=O)O)C(C)C; Sar = CNCC(=O)O
Legend:
Homo sapiens [1] = species on record: Homo sapiens; test: Inhibition of Anti-PLA2R IgG interaction with human recombinant PLA2 receptor at 10 uM incubated for 1 hr by ELISA analysis relative to control
Homo sapiens [2] = species on record: Homo sapiens; test: Binding affinity to human Anti-PLA2R IgG at 1 to 500 uM by SPR analysis; conditions: dose 1-500 µM
Homo sapiens [3] = species on record: Homo sapiens; test: Inhibition of Anti-PLA2R IgG interaction with human recombinant PLA2 receptor assessed as maximum inhibition at 0 to 5 uM by SPR analysis relative to control; conditions: dose 0-5 µM
Podocyte [4] = test: Reversal of membranous nephropathy-patient derived 5% plasma induced cytotoxicity against human Podocytes assessed as cell viability recovery by measuring optical density at 0.2 uM measured at 48 hrs by CCK-8 assay (reference value: 0.4 +/- 0.1); type: functional
Homo sapiens [5] = species on record: Homo sapiens; test: Inhibition of Anti-PLA2R IgG interaction with human recombinant PLA2 receptor at 10 uM by SPR analysis relative to control
Podocytes = test: Inhibition of Anti-PLA2R IgG binding to human recombinant PLA2 receptor in human Podocytes assessed as mean fluorescence intensity at 5 uM by immunofluorescence analysis (reference value: 8.1 +/- 1.5); type: cell-based
Podocyte [6] = test: Reversal of membranous nephropathy-patient derived 5% plasma induced cytotoxicity against human Podocytes assessed as cell viability recovery by measuring optical density at 1 uM measured at 48 hrs by CCK-8 assay (reference value: 0.4 +/- 0.1); type: functional
Podocyte [7] = test: Reversal of membranous nephropathy-patient derived 5% plasma induced cytotoxicity against human Podocytes assessed as cell viability recovery by measuring optical density at 1 uM measured at 72 hrs by CCK-8 assay (reference value: 0.3 +/- 0.05); type: functional
Podocyte [8] = test: Recovery of Podocin-expression in membranous nephropathy-patient derived 5% plasma induced human Podocytes by Western blot analysis; type: functional, cell-based; conditions: dose 0.2-5 µM
[9] = biological target: Secretory phospholipase A2 receptor (Homo sapiens, UniProt Q13018); test: Binding affinity to human recombinant PLA2 receptor assessed as dissociation constant by SPR analysis
Sequence of Secretory phospholipase A2 receptor (Q13018 whole entry): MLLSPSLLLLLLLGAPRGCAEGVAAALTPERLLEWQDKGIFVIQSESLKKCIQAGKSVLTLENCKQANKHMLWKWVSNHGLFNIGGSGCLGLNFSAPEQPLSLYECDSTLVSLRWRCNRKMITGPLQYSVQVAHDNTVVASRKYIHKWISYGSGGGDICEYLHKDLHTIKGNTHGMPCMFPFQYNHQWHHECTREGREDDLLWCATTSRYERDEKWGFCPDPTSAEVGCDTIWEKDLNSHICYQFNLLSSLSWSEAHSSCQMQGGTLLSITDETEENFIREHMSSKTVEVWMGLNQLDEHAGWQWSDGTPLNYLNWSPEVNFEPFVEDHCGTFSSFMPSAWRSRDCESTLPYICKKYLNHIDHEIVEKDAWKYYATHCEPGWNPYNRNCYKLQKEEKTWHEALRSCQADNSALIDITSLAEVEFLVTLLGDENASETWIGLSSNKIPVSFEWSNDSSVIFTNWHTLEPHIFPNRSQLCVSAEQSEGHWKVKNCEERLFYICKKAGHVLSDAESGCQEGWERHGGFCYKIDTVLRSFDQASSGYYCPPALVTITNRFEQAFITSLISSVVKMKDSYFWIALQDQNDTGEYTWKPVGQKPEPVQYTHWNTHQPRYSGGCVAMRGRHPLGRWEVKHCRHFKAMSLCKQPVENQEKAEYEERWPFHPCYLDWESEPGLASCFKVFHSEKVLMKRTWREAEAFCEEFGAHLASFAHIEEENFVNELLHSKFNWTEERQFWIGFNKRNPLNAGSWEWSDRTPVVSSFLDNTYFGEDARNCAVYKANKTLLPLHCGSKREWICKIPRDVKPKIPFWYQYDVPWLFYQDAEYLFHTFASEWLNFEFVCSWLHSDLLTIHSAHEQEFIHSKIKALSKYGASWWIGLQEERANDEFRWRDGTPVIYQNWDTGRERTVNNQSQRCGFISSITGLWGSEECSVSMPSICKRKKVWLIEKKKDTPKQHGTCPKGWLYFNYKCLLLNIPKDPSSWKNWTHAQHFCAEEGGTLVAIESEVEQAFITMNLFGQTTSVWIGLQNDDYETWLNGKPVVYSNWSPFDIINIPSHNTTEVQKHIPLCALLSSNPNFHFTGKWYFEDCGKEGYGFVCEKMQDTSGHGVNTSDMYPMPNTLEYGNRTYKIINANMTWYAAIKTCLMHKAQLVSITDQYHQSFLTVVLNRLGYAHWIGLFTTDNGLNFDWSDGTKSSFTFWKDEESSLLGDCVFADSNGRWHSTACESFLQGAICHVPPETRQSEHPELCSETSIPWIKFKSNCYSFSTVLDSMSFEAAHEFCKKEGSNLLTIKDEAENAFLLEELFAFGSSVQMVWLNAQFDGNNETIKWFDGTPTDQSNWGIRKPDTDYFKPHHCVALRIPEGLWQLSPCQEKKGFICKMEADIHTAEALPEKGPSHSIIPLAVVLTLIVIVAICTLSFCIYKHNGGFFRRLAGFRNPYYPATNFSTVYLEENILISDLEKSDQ

Homo sapiens [10] = species on record: Homo sapiens; test: Inhibition of Anti-PLA2R IgG interaction with human recombinant PLA2 receptor by SPR analysis; conditions: dose 50-80 nM
Podocyte [11] = test: Reversal of membranous nephropathy-patient derived 5% plasma induced cytotoxicity against human Podocytes assessed as cell viability recovery by measuring optical density at 5 uM measured at 72 hrs by CCK-8 assay (reference value: 0.3 +/- 0.05); type: functional
Podocyte [12] = test: Reversal of membranous nephropathy-patient derived 5% plasma induced cytotoxicity against human Podocytes assessed as cell viability recovery by measuring optical density at 5 uM measured at 48 hrs by CCK-8 assay (reference value: 0.4 +/- 0.1); type: functional
Podocyte [13] = test: Reversal of membranous nephropathy-patient derived 5% plasma induced inhibition of cell migration in human Podocytes assessed as restoration of number of migrating cells at 1 uM measured upto 24 hrs by wound healing assay (reference value: 25.3 +/- 5.1); type: functional
Podocyte [14] = test: Reversal of membranous nephropathy-patient derived 5% plasma induced cytotoxicity against human Podocytes assessed as cell viability recovery by measuring optical density at 0.2 uM measured at 72 hrs by CCK-8 assay (reference value: 0.3 +/- 0.05); type: functional

Row | SMILES | inhibition (Homo sapiens [1]) [%] | inhibition (Homo sapiens [5]) [%] | further results
1 | CC(=O)O[C@H]1C[C@@H]2C(COC(=O)CC(C)C)=CO[C@@H](OC(=O)CC(C)C)[C@@H]2[C@@]12CO2 | 26.4 |  | 
2 | CC(C)C[C@H](c1c(O)c(C=O)c(O)c(C=O)c1O)[C@@]1(C)CC[C@@H]2[C@@H]1[C@H]1[C@@H](CC[C@@]2(C)O)C1(C)C [MACROCARPAL B] | 41.6 | 19 | Activity (Homo sapiens [2]): inactive; Imax (Homo sapiens [3]): 30%; OD (Podocyte [4]): 0.6; Flu intensity (Podocytes): 2.1; OD (Podocyte [6]): 0.7; OD (Podocyte [7]): 0.6; Activity (Podocyte [8]): Dose-Dependent Effect; Kd [9]: 1470 nM; inhibition (Homo sapiens [10]): Dose-Dependent Effect; OD (Podocyte [11]): 0.6; OD (Podocyte [12]): 0.8; Activity (Podocyte [13]): 50.7; OD (Podocyte [14]): 0.5
3 | CC(C)C[C@@H](c1c(O)c(C=O)c(O)c(C=O)c1O)[C@@H]1CC[C@@](C)(O)[C@@H]2[C@@H]3[C@H](CC[C@]21C)C3(C)C | 34.3 | 12.6 | 
4 | CC(=O)C[C@]1(O)C(=O)C2=C(OC[C@@H]2C)c2ccc3c(C)cccc3c21 | 28.7 | 10.1 | 
5 | CO[C@H]1C[C@H](O[C@H]2[C@H](C)O[C@@H](O[C@@H]3/C(C)=C/C[C@@H]4C[C@@H](C[C@]5(C=C[C@H](C)[C@@H](C6CCCCC6)O5)O4)OC(=O)[C@@H]4C=C(C)[C@@H](O)[C@H]5OC/C(=C\C=C\[C@@H]3C)[C@]54O)C[C@@H]2OC)O[C@@H](C)[C@@H]1O | 27.1 | 12 | 
6 | Cc1c2oc3c(C)ccc(C(=O)N[C@@H]4C(=O)N[C@H](C(C)C)C(=O)N5CCC[C@H]5C(=O)N(C)CC(=O)N(C)[C@@H](C(C)C)C(=O)O[C@@H]4C)c3nc-2c(C(=O)N[C@@H]2C(=O)N[C@H](C(C)C)C(=O)N3CCC[C@H]3C(=O)N(C)CC(=O)N(C)[C@@H](C(C)C)C(=O)O[C@@H]2C)c(N)c1=O (I: T[dV]P[Sar][NMeV] / II: T[dV]P[Sar][NMeV]; ester I:1-I:C, II:1-II:C; linker I:N-II:N via Actinocin(9to1)) | 79.3 |  | 
7 | CCCCCc1cc(O)c(C/C=C(\C)CCC=C(C)C)c(O)c1 | 32.9 | 9.7 | 
8 | COc1c(O)c2c(=O)cc(OC)c3c4c(OC)cc(O)c5c(=O)c(OC)c6c(c(c1[C@H](C(C)=O)[C@](C)(O)C6)c23)c54 | 74.3 | 11.9 | 
9 | COc1cc(O)c2c(=O)c3cc(CC=C(C)C)c(O)c(O)c3oc2c1CC=C(C)C | 51.8 | 10.7 | 
10 | CC(C)=CCC[C@]1(C)C=Cc2c(O)c3c(c(CC=C(C)C)c2O1)O[C@]12C(=C[C@@H]4C[C@H]1C(C)(C)O[C@@]2(C/C=C(/C)C(=O)O)C4=O)C3=O | 73.1 | 13.4 | 
11 | CC(C)=CCc1c(O)c(CC=C(C)C)c2oc3c(O)ccc(O)c3c(=O)c2c1O | 49.4 | 12.2 | 
12 | CC(C)C[C@@H](c1c(O)c(C=O)c(O)c(C=O)c1O)[C@@]1(C)CC[C@H]2C1=C[C@H](C(C)(C)O)CC[C@H]2C | 21.2 | 11.3 | 
13 | CC(=O)O[C@H]1C[C@]2(O)C(COC(=O)C(OC(=O)CC(C)C)C(C)C)=CO[C@@H](OC(=O)CC(C)C)[C@@H]2[C@@]12CO2 (some centres undefined) | 30.2 | 7.7 | 
14 | CC1(C)CC[C@]2(C(=O)O)CC[C@]3(COC(=O)/C=C/c4ccc(O)c(O)c4)C(=CC[C@@H]4[C@@]5(C)CC[C@H](O)C(C)(C)[C@@H]5CC[C@]43C)[C@@H]2C1 | 20.5 |  | 
15 | CC(C)=CCc1cc2c(=O)c3c(O)c(CC=C(C)C)c(O)c(CC=C(C)C)c3oc2c(O)c1O | 55.4 |  | 

Source: ChEMBL document CHEMBL5576086, “Macrocarpal B blocks the binding between the phospholipase A2 receptor and its antibodies” (Bioorg Med Chem, 2024)
